Results reported in patent US7736861B1, “Tivozanib response prediction” (AVEO Pharmaceuticals, Inc., priority 2009, dated 2010).

Experiments:
[1] = molecular target: VEGF receptor 3 (Homo sapiens, UniProt P35916); settings: Nakamura et al., 2006; cited from earlier work
[2] = tested on: preclinical models; settings: Nakamura et al., 2006; cited from earlier work
[3] = tested on: murine breast tumors (Her2-dependent, BH archive); assay: murine breast tumor response to tivozanib (BH archive tumors transplanted subcutaneously in NCr nude mice); assay type: in vivo, mouse
Excerpt: A library of more than 100 murine breast tumors (BH archive) was used to identify tumors that are sensitive to tivozanib (responders) and tumors that are resistant to tivozanib (non-responders). The BH archive was established by in vivo propagation and cryopreservation of primary tumor material from more than 100 spontaneous murine breast tumors derived from engineered chimeric mice that develop Her2-dependent, inducible spontaneous breast tumors. The mice were produced essentially as follows.
Tumor cells were isolated by physical disruption of the tumors using cell strainers. Typically 1×10^5 cells were mixed with matrigel (50:50 volume) and injected subcutaneously into female NCr nu/nu mice on upper dorsal region between the shoulder blades. When these tumors grew to approximately 500 mm^3, which typically required 2 to 4 weeks, they were collected for further propagation, drug response testing, and analysis. Analysis included microarray profiling, general histopathology, and IHC (CD31 for tumor vasculature, Ki67 for tumor cell proliferation).
Evaluation of tumor response to tivozanib was performed essentially as follows. Subcutaneously transplanted tumors were established by injecting physically disrupted tumor cells (mixed with Matrigel) into 7 week-old female NCr nude mice. When the tumors reached approximately 200-400 mm^3, 30 tumor-bearing mice were randomized into three groups. Group 1 received vehicle. Group 2 received tivozanib at 5 mg/kg daily by oral gavage. Group 3 received tivozanib at 20 mg/kg daily by oral gavage. Tumors were measured twice per week by a caliper, and tumor volume was calculated. At the end of the treatment, tumors were collected for histopathological analysis and IHC analysis.
Based on tumor growth inhibition and typical histopathological and IHC (CD31) characteristics for angiogenesis inhibition, responders and non-responders were identified. […] The variation in response was expected, because the mouse model tumors had arisen spontaneously, and therefore they were expected to contain differing sets of random mutations that had led to tumorigenesis, including tumor angiogenesis. Such variation in response was desirable, because it was similar to the variation in naturally occurring human tumors, and thus enabled identification of tivozanib-responsive tumors and tivozanib-resistant tumors for use in identifying the molecular signature or tivozanib responsiveness.

[4] = 272-patient Phase 2 clinical trial; Bhargava et al., 2009; cited from earlier work
[5] = of 26 individual murine breast tumors, FIG. 1

Chain of VEGF receptor 3 (P35916 25-1363): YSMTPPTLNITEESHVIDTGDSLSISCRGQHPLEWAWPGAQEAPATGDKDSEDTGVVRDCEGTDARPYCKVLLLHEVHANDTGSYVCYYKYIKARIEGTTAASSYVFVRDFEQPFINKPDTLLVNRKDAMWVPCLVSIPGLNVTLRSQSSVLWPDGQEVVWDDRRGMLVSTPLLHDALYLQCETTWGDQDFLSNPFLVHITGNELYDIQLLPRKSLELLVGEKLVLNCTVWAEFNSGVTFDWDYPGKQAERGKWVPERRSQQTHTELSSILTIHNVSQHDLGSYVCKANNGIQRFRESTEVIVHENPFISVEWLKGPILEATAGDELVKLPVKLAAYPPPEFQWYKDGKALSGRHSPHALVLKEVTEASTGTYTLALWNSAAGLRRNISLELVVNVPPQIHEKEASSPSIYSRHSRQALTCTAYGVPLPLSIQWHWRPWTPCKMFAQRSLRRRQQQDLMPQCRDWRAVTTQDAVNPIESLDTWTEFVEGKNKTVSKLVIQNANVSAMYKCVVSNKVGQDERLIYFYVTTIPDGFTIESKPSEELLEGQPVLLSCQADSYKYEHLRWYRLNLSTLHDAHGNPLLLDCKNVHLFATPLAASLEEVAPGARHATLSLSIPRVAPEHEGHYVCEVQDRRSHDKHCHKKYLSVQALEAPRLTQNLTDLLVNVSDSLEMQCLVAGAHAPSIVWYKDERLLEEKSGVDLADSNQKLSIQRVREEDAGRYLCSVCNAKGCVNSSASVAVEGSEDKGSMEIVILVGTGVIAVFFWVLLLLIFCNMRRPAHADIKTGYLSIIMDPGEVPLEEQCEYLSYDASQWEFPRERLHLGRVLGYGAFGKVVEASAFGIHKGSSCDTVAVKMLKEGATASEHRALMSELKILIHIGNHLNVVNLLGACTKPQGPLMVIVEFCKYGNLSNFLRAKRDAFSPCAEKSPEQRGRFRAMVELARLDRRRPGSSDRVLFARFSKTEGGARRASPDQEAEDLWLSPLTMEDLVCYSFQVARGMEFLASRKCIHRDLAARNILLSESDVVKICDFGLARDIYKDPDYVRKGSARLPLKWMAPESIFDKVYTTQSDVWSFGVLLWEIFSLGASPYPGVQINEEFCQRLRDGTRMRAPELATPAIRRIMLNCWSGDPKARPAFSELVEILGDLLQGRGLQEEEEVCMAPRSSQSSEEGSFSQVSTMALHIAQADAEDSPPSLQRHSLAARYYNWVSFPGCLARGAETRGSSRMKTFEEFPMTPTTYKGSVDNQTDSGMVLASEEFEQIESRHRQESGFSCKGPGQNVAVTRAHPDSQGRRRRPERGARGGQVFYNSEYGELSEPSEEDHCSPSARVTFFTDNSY

## COc1cc2nccc(Oc3ccc(NC(=O)Nc4cc(C)on4)c(Cl)c3)c2cc1OC [tivozanib, N-{2-chloro-4-[(6,7-dimethoxy-4-quinolyl)oxy]-phenyl}-N′-(5-methyl-3-isoxazolyl)urea]
[1]
  inhibitory activity: picomolar
[2]
  antitumor activity: exhibits antitumor activity
[3]; 5 or 20 mg/kg daily by oral gavage
  variation in response among tumors: significant tumor-to-tumor variation in response
[3]; [5]
  number of tumors classified as non-responsive (tivozanib resistant tumors): 18
  number of tumors classified as responsive (tivozanib sensitive tumors): eight
[3]; responder tumors, 5 mg/kg daily by oral gavage
  tumor progression by caliper measurement: no tumor progression
[3]; responder tumors, 5 mg/kg daily by oral gavage, except the peripheries
  tumor killing (by histology): close to complete tumor killing
[4]
  interim results of clinical trial: positive interim results
